The source of these data is PMC6287539 (International Journal for Parasitology: Drugs and Drug …, 2018).

The target in experiment [1] is T1, Hco-ACC-1 (in the Hco-ACC-1/2 heteromeric channel) (Haemonchus contortus, UniProt A0A219KVV5+A0A219KWM7).
T1 sequence (A0A219KVV5 23-459): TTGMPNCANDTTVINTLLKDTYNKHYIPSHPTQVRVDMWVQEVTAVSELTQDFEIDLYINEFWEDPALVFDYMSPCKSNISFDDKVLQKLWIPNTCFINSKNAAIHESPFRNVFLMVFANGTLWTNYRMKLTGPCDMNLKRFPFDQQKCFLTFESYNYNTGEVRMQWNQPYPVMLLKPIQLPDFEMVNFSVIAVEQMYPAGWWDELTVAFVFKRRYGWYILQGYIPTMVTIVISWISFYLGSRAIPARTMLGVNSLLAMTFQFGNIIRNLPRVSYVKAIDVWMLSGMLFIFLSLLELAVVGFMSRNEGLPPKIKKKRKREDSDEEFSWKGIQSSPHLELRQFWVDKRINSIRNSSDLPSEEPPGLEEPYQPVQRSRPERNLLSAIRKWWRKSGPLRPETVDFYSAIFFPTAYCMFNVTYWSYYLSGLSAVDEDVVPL
T1 sequence (A0A219KWM7 18-443): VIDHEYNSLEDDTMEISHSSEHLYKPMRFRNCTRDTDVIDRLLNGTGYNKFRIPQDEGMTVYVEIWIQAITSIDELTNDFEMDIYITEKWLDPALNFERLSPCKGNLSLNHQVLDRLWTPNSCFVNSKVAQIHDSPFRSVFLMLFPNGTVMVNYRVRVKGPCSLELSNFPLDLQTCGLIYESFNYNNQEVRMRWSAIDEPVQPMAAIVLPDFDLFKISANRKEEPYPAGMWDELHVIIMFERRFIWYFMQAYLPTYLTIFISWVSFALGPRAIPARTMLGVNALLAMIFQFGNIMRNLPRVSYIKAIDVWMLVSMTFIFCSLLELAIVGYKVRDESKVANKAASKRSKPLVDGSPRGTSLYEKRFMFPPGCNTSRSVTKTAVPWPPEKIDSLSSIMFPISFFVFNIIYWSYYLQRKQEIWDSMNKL
Put plainly: two-electrode voltage clamp in Xenopus oocytes, dose-response. Format: cell-based. A general note: In two-electrode clamp one electrode senses voltage and the other passes current.

The target in experiment [2] is T2, Hco-ACC-2 (homomeric channel) (Haemonchus contortus, UniProt A0A219KWM7).
T2 sequence (A0A219KWM7 18-443): T1 sequence (A0A219KWM7 18-443)
The experiment is described as above. Format: cell-based.

In the case of `C[N+](C)(C)CCOC(N)=O` [carbachol], the EC50 in experiment [1] stood at 32.5 ± 3 µM; in experiment [2] it was 46 ± 2 µM.

Broadly, the EC50 is the concentration that produces a half-maximal response. Low readings indicate higher potency in that assay, high ones lower potency in that assay.
